Values quoted from earlier work as cited in patent US20250041246A1, “METHODS AND COMPOSITIONS FOR TREATING VITILIGO” (THE REGENTS OF THE UNIVERSITY OF CALIFORNIA, priority 2021, published 2025).

Experiments:
[1] = system: hyperpigmentary disorders; conditions: in hyperpigmentary disorders
[2] = system: existing melanosomes (in melanocytes); conditions: due to its effect on existing melanosomes (in melanocytes)

| SMILES | effect on skin pigmentation [1] | effect on skin pigmentation [2] |
| --- | --- | --- |
| CN(C)C(=N)N=C(N)N [metformin] | lighten skin |  |
| [H]/N=C(/N)N/C(=N/[H])NCCc1ccccc1 [phenformin] |  | skin darkening effect |
